Experimental data taken from patent publication US4753953A, “Pyridonecarboxylic acid derivatives and antibacterial pharmaceutical compositions thereof” (priority 1985, dated 1988).
Converted amounts (≈) assume the structure as drawn. Where two headings read alike, the source gives them in different places.

Tests used:
[1] = system: K. pneumoniae 1-220S; experiment: MIC, in vitro antibacterial activity (standard strains); assay type: cell-based, Klebsiella pneumoniae; conditions: Klebsiella pneumoniae, 1220S; 10^6 cells/ml; Gram -; read-out: MIC
[2] = system: Bacillus subtilis PCI 219; experiment: as above; assay type: cell-based; conditions: Bacillus subtilis, PCI219; 10^6 cells/ml; Gram +; read-out: MIC
[3] = system: Eubacterium lentum GAI 5242; experiment: as above; assay type: cell-based; conditions: Eggerthella lenta, GAI5242; 10^6 cells/ml; Gram +; read-out: MIC
[4] = system: Propionibacterium acens 11828; experiment: as above; assay type: cell-based; conditions: Propionibacterium, 11828; 10^6 cells/ml; Gram +; read-out: MIC
[5] = system: Peptococcus magnus KY 017; experiment: as above; assay type: cell-based; conditions: Finegoldia magna, KY017; 10^6 cells/ml; Gram +; read-out: MIC
[6] = system: Morganella morganii IID 602; experiment: as above; assay type: cell-based; conditions: Morganella morganii, IID602; 10^6 cells/ml; Gram -; read-out: MIC
[7] = system: Proteus vulgaris IFO 3167; experiment: as above; assay type: cell-based; conditions: Proteus vulgaris, IFO3167; 10^6 cells/ml; Gram -; read-out: MIC
[8] = system: B. thetaiotaomicron (0661); experiment: as above; assay type: cell-based; conditions: Bacteroides thetaiotaomicron; 10^6 cells/ml; Gram -; read-out: MIC
[9] = system: Fusobacterium mortiferum 4249; experiment: as above; assay type: cell-based; conditions: Fusobacterium mortiferum, 4249; 10^6 cells/ml; Gram -; read-out: MIC
[10] = system: C. ramosum; experiment: as above; assay type: cell-based; conditions: Thomasclavelia ramosa; 10^6 cells/ml; Gram +; read-out: MIC
[11] = system: E. coli ML 4707; experiment: as above; assay type: cell-based, Escherichia coli; conditions: Escherichia coli, ML4707, 10^6 cells/ml; Gram -; Table 1; read-out: MIC
[12] = system: P. mirabilis IID 994; experiment: as above; assay type: cell-based; conditions: Proteus mirabilis, IID994; 10^6 cells/ml; Gram -; read-out: MIC
[13] = system: P. aeruginosa IFO 12689; experiment: as above; assay type: cell-based, Pseudomonas aeruginosa; conditions: Pseudomonas aeruginosa, IFO12689
[14] = system: C. perfringens KYA 13123; experiment: microbe, parasite or virus in culture; assay type: cell-based; conditions: Clostridium perfringens, KYA13123
[15] = system: Pseudomonas aeruginosa V-1; experiment: MIC, in vitro antibacterial activity (standard strains); assay type: cell-based; conditions: Pseudomonas aeruginosa, V1
[16] = system: B. vulgatus KYA 29327; experiment: as above; assay type: cell-based; conditions: Phocaeicola vulgatus, KYA29327; 10^6 cells/ml; Gram -; read-out: MIC
[17] = system: Yersinia enterocolitica IID 981; experiment: as above; assay type: cell-based; conditions: Yersinia enterocolitica, IID981; 10^6 cells/ml; Gram -; read-out: MIC
[18] = system: Serratia marcescens IID 618; experiment: as above; assay type: cell-based; conditions: Serratia marcescens, IID618; 10^6 cells/ml; Gram -; read-out: MIC
[19] = system: B. distasonis 8503; experiment: as above; assay type: cell-based; conditions: Parabacteroides distasonis, 8503; 10^6 cells/ml; Gram -; read-out: MIC
[20] = system: S. epidermidis IID 866; experiment: as above; assay type: cell-based; conditions: Staphylococcus epidermidis, IID866; 10^6 cells/ml; Gram +; read-out: MIC
[21] = system: F. necrophorum S-45; experiment: as above; assay type: cell-based; conditions: Fusobacterium necrophorum, S45; 10^6 cells/ml; Gram -; read-out: MIC
[22] = system: Pst. micros UPI 5464-1; experiment: as above; assay type: cell-based; conditions: Parvimonas micra, UPI54641; 10^6 cells/ml; Gram +; read-out: MIC
[23] = system: P. aeruginosa IID 1210; experiment: as above; assay type: cell-based, Pseudomonas aeruginosa; conditions: Pseudomonas aeruginosa, IID1210; 10^6 cells/ml; Gram -; read-out: MIC
[24] = system: E. coli ATCC 10536; experiment: as above; assay type: cell-based, Escherichia coli; conditions: Escherichia coli, ATCC10536; 10^6 cells/ml; Gram -; read-out: MIC
[25] = system: Bacteroides fragilis GM 7000; experiment: as above; assay type: cell-based; conditions: Bacteroides fragilis, GM7000; 10^6 cells/ml; Gram -; read-out: MIC
[26] = system: E. faecalis IID 682; experiment: as above; assay type: cell-based; conditions: Enterococcus faecalis, IID682; 10^6 cells/ml; Gram +; read-out: MIC
[27] = system: S. pneumoniae IID 552; experiment: as above; assay type: cell-based; conditions: Streptococcus pneumoniae, IID552; 10^6 cells/ml; Gram +; read-out: MIC
[28] = system: B. fragilis 0558; experiment: as above; assay type: cell-based, Bacteroides fragilis; conditions: Bacteroides fragilis, 0558; 10^6 cells/ml; Gram -; read-out: MIC
[29] = system: Citrobacter freundii IID 976; experiment: as above; assay type: cell-based; conditions: Citrobacter freundii, IID976; 10^6 cells/ml; Gram -; read-out: MIC
[30] = system: F. varium KYA 8501; experiment: as above; assay type: cell-based; conditions: Fusobacterium varium, KYA8501; 10^6 cells/ml; Gram -; read-out: MIC
[31] = system: Peptostreptococcus anaerobius KYA 27337; experiment: as above; assay type: cell-based; conditions: Peptostreptococcus anaerobius, KYA27337; 10^6 cells/ml; Gram +; read-out: MIC
[32] = system: S. aureus IID 670 (Terajima); experiment: as above; assay type: cell-based, Staphylococcus aureus; conditions: Staphylococcus aureus, IID670; 10^6 cells/ml; Gram +; read-out: MIC
[33] = 10^6 cells/ml, Gram -, read-out: MIC

Compound | MIC [1] [mg/L] | MIC [2] [mg/L] | MIC [3] [mg/L] | MIC [4] [mg/L] | MIC [5] [mg/L] | MIC [6] [mg/L] | MIC [7] [mg/L] | MIC [8] [mg/L] | MIC [9] [mg/L] | MIC [10] [mg/L] | MIC [11] [mg/L] | MIC [12] [mg/L] | MIC [14] [mg/L] | MIC [16] [mg/L] | MIC [17] [mg/L] | MIC [18] [mg/L] | MIC [19] [mg/L] | MIC [20] [mg/L] | MIC [21] [mg/L] | MIC [22] [mg/L] | also measured
C[C@@H]1CN(c2c(F)cc3c(=O)c(C(=O)O)cn(C4CC4)c3c2Br)C[C@H]1N (relative stereo) [Example 32, 7-(trans-3-Amino-4-methyl-1-pyrrolidinyl)-8-bromo-1-cyclopropyl-6-fluoro-1,4-dihydro-4-oxo-3-quinolinecarboxylic acid] | 0.05 (≈ 0.118 µM) | 0.0125 (≈ 0.0295 µM) | 0.1 (≈ 0.236 µM) | 1.56 (≈ 3.68 µM) | 0.05 (≈ 0.118 µM) | 0.05 (≈ 0.118 µM) | 0.0125 (≈ 0.0295 µM) | 0.2 (≈ 0.471 µM) | 0.2 (≈ 0.471 µM) | 0.78 (≈ 1.84 µM) | 0.0125 (≈ 0.0295 µM) | 0.05 (≈ 0.118 µM) | 0.2 (≈ 0.471 µM) | 0.1 (≈ 0.236 µM) | 0.025 (≈ 0.0589 µM) | 0.05 (≈ 0.118 µM) | 0.2 (≈ 0.471 µM) | 0.05 (≈ 0.118 µM) | 0.1 (≈ 0.236 µM) | 0.1 (≈ 0.236 µM) | MIC [13, 33]: 0.39 mg/L (≈ 0.919 µM); MIC [15]: 0.2 mg/L (≈ 0.471 µM); MIC [23]: 0.78 mg/L (≈ 1.84 µM); MIC [24]: 0.0125 mg/L (≈ 0.0295 µM); MIC [25]: 0.1 mg/L (≈ 0.236 µM); MIC [26]: 0.2 mg/L (≈ 0.471 µM); MIC [27]: 0.1 mg/L (≈ 0.236 µM); MIC [28]: 0.05 mg/L (≈ 0.118 µM); MIC [29]: 0.025 mg/L (≈ 0.0589 µM); MIC [30]: 0.78 mg/L (≈ 1.84 µM); MIC [31]: 0.2 mg/L (≈ 0.471 µM); MIC [32]: 0.05 mg/L (≈ 0.118 µM)
C[C@H]1CN(c2c(F)cc3c(=O)c(C(=O)O)cn(CCF)c3c2Cl)C[C@H]1N (relative stereo) [Example 27, 7-(cis-3-Amino-4-methyl-1-pyrrolidinyl)-8-chloro-6-fluoro-1-(2-fluoroethyl)-1,4-dihydro-4-oxo-3-quinolinecarboxylic acid] | 0.2 (≈ 0.518 µM) | 0.1 (≈ 0.259 µM) | 0.78 (≈ 2.02 µM) | 12.5 (≈ 32.4 µM) | 0.78 (≈ 2.02 µM) | 0.1 (≈ 0.259 µM) | 0.05 (≈ 0.13 µM) | 3.13 (≈ 8.11 µM) | 1.56 (≈ 4.04 µM) | 25 (≈ 64.8 µM) | 0.05 (≈ 0.13 µM) | 0.1 (≈ 0.259 µM) | 0.39 (≈ 1.01 µM) | 3.13 (≈ 8.11 µM) | 0.1 (≈ 0.259 µM) | 0.1 (≈ 0.259 µM) | 6.25 (≈ 16.2 µM) | 0.2 (≈ 0.518 µM) | 1.56 (≈ 4.04 µM) | 0.39 (≈ 1.01 µM) | MIC [13]: 3.13 mg/L (≈ 8.11 µM); MIC [15]: 0.39 mg/L (≈ 1.01 µM); MIC [23]: 6.25 mg/L (≈ 16.2 µM); MIC [24]: 0.05 mg/L (≈ 0.13 µM); MIC [25]: 1.56 mg/L (≈ 4.04 µM); MIC [26]: 0.78 mg/L (≈ 2.02 µM); MIC [27]: 0.78 mg/L (≈ 2.02 µM); MIC [28]: 1.56 mg/L (≈ 4.04 µM); MIC [29]: 0.1 mg/L (≈ 0.259 µM); MIC [30]: 6.25 mg/L (≈ 16.2 µM); MIC [31]: 1.56 mg/L (≈ 4.04 µM); MIC [32]: 0.39 mg/L (≈ 1.01 µM)
C[C@H]1CN(c2c(F)cc3c(=O)c(C(=O)O)cn(C4CC4)c3c2F)C[C@H]1N.Cl (relative stereo) [Example 20, 7-(cis-3-Amino-4-methyl-1-pyrrolidinyl)-1-cyclopropyl-6,8-difluoro-1,4-dihydro-4-oxo-3-quinolinecarboxylic acid hydrochloride] | 0.05 | 0.025 | 0.2 | 3.13 | 0.2 | 0.05 | 0.025 | 0.78 | 0.39 | 1.56 | 0.025 | 0.05 | 0.2 | 0.39 | 0.05 | 0.05 | 0.78 | 0.05 | 0.39 | 0.2 | MIC [13, 33]: 0.39 mg/L; MIC [15, 33]: 0.2 mg/L; MIC [23]: 0.78 mg/L; MIC [24]: 0.025 mg/L; MIC [25]: 0.39 mg/L; MIC [26]: 0.2 mg/L; MIC [27]: 0.2 mg/L; MIC [28]: 0.39 mg/L; MIC [29]: 0.025 mg/L; MIC [30]: 1.56 mg/L; MIC [31]: 0.39 mg/L; MIC [32]: 0.05 mg/L
